# According to patent US11802120B2, “Fused cyclic urea derivatives as CRHR2 antagonist” (RaQualia Pharma Inc., priority 2018, dated 2023):
# Biological target: T1, human CRHR2-alpha (Homo sapiens, UniProt Q13324)
# T1 sequence (Q13324 1-411): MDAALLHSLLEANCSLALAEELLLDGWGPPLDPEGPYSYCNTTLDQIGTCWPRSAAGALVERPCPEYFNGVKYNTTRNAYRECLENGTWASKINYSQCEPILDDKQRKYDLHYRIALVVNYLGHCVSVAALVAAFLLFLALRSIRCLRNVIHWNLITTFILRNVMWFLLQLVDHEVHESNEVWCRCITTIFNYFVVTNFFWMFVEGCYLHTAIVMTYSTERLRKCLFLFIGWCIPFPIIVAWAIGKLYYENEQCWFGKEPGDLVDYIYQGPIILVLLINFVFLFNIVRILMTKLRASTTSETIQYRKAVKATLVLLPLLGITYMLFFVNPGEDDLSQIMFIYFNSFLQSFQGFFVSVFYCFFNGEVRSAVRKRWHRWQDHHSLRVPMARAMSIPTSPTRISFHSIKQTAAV
# Assay: cAMP functional assay for human CRHR2 (LANCE Ultra cAMP, TR-FRET)
# Type: cell-based
# Details: CHO-K1 cells expressing human CRHR2-alpha, agonist human urocortin2 at EC80, cAMP; read-out: IC50 against CRHR2
# Method in brief: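 Antagonism measured in CHO-K1 cells stably expressing the receptor, serum-starved 7 h then cryopreserved. Thawed cells in HBSS buffer with 0.1% BSA, 0.5 mM IBMX, 5 mM Hepes pH 7.4 were preincubated with compound 30 min at 25° C, then stimulated 30 min with EC80 agonist: urocortin2 for CRHR2, CRF for CRHR1.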
row,IC50,Compound
1,< 300 nM,"CCn1nc2ccccc2c1C(=O)N[C@H]1CC[C@H](Cn2c(=O)n(-c3ccc(OC)cc3)c3ccccc32)CC1 [Example 37, 2-ethyl-N-((1r,4r)-4-((3-(4-methoxyphenyl)-2-oxo-2,3-dihydro-1H-benzo[d]imidazol-1-yl)methyl)cyclohexyl)-2H-indazole-3-carboxamide]"
2,< 300 nM,"Cc1ncc(Cl)cc1C(=O)N[C@H]1CC[C@H](Cn2c(=O)n(-c3cnc4c(cnn4C)c3)c3ccccc32)CC1 [Example 163, 5-chloro-2-methyl-N-((1r,4r)-4-((3-(1-methyl-1H-pyrazolo [3,4-b]pyridin-5-yl)-2-oxo-2,3-dihydro-1H-benzo[d]imidazol-1-yl)methyl)cyclo-hexyl)nicotinamide]"
3,< 300 nM,"Cc1ccc(-n2c(=O)n(C[C@H]3CC[C@H](NC(=O)c4cc(Cl)cnc4C)CC3)c3cccc(F)c32)cn1 [Example 121, 5-chloro-N-((1r,4r)-4-((4-fluoro-3-(6-methylpyridin-3-yl)-2-oxo-2,3-dihydro-1H-benzo[d]imidazol-1-yl)methyl)cyclo-hexyl)-2-methylnicotinamide]"
4,< 300 nM,"Cc1n[nH]c2ccc(-n3c(=O)n(C[C@H]4CC[C@H](NC(=O)c5cc(Cl)cnc5C(F)(F)F)CC4)c4ccccc43)cc12 [Example 260, 5-chloro-N-((1r,4r)-4-((3-(3-methyl-1H-indazol-5-yl)-2-oxo-2,3-dihydro-1H-benzo[d]imidazol-1-yl)methyl)cyclohexyl)-2-(trifluoromethyl)nicotinamide]"
5,< 300 nM,"COc1ccc(-n2c(=O)n(C[C@H]3CC[C@H](NC(=O)c4cc(Cl)cnc4C)CC3)c3cccnc32)cc1OC1CCCC1 [Example 401, 5-chloro-N-((1r,4r)-4-((3-(3-(cyclopentyloxy)-4-methoxy-phenyl)-2-oxo-2,3-dihydro-1H-imidazo[4,5-b]pyridin-1-yl)methyl)cyclohexyl)-2-methylnicotinamide]"
6,< 300 nM,"O=C(Cn1c(=O)n(C[C@H]2CC[C@H](NC(=O)c3cc(Cl)cnc3C(F)(F)F)CC2)c2ccccc21)c1ccccc1 [Example 285, 5-chloro-N-((1r,4r)-4-((2-oxo-3-(2-oxo-2-phenylethyl)-2,3-dihydro-1H-benzo[d]imidazol-1-yl)methyl)cyclohexyl)-2-(trifluoromethyl)nicotinamide]"
7,< 300 nM,"CN(C)c1ccc(-n2c(=O)n(C[C@H]3CC[C@H](NC(=O)c4cc(Cl)cnc4C(F)F)CC3)c3ccccc32)nc1 [Example 648, 5-chloro-2-(difluoromethyl)-N-((1r,4r)-4-((3-(5-(dimethyl-amino)pyridin-2-yl)-2-oxo-2,3-dihydro-1H-benzo[d]imidazol-1-yl)methyl)cyclo-hexyl)nicotinamide]"
8,< 300 nM,"Cc1ncc(Cl)cc1C(=O)N[C@H]1CC[C@H](Cn2c(=O)n(-c3ccc4c(c3)nnn4C3COC3)c3ccccc32)CC1 [Example 341, 5-chloro-2-methyl-N-((1r,4r)-4-((3-(1-(oxetan-3-yl)-1H-benzo[d][1,2,3]triazol-5-yl)-2-oxo-2,3-dihydro-1H-benzo[d]imidazol-1-yl)methyl)cyclohexyl)nicotinamide]"
9,< 300 nM,"O=C(N[C@H]1CC[C@H](Cn2c(=O)n(-c3ccc(N4CCCC4=O)nc3)c3ccccc32)CC1)c1cc(Cl)cnc1C(F)F [Example 498, 5-chloro-2-(difluoromethyl)-N-((1r,4r)-4-((2-oxo-3-(6-(2-oxopyrrolidin-1-yl)pyridin-3-yl)-2,3-dihydro-1H-benzo[d]imidazol-1-yl)methyl)cyclohexyl)nicotinamide]"
10,< 300 nM,"Cc1ncc(Cl)cc1C(=O)N[C@H]1CC[C@H](Cn2c(=O)n(-c3cccc(-c4cocn4)c3)c3ccccc32)CC1 [Example 568, 5-chloro-2-methyl-N-((1r,4r)-4-((3-(3-(oxazol-4-yl)phenyl)-2-oxo-2,3-dihydro-1H-benzo [d]imidazol-1-yl)methyl)cyclo-hexyl)nicotinamide]"
11,< 300 nM,"Cc1ccc(-n2c(=O)n(C[C@H]3CC[C@H](NC(=O)c4cc(Cl)ccc4Cl)CC3)c3ccccc32)cn1 [Example 269, 2,5-dichloro-N-((1r,4r)-4-((3-(6-methylpyridin-3-yl)-2-oxo-2,3-dihydro-1H-benzo[d]imidazol-1-yl)methyl)cyclohexyl)benzamide]"
12,< 300 nM,"Cn1cc(-c2cccc(-n3c(=O)n(C[C@H]4CC[C@H](NC(=O)c5cc(Cl)cnc5C(F)F)CC4)c4ccccc43)n2)cn1 [Example 657, 5-chloro-2-(difluoromethyl)-N-((1r,4r)-4-((3-(6-(1-methyl-1H-pyrazol-4-yl)pyridin-2-yl)-2-oxo-2,3-dihydro-1H-benzo[d]imidazol-1-yl)methyl)cyclohexyl)nicotinamide]"
13,< 300 nM,"CNC(=O)c1ccc(-n2c(=O)n(C[C@H]3CC[C@H](NC(=O)c4cc(Cl)cnc4C)CC3)c3cc(C)ccc32)cn1 [Example 225, 5-(3-(((1r,4r)-4-(5-chloro-2-methylnicotinamido)cyclo-hexyl)methyl)-5-methyl-2-oxo-2,3-dihydro-1H-benzo [d]imidazol-1-yl)-N-methylpicolinamide]"
14,< 300 nM,"O=C(N[C@H]1CC[C@H](Cn2c(=O)n(Cc3ccccn3)c3ccccc32)CC1)c1cc(Cl)ccc1C(F)(F)F [Example 283, 5-chloro-N-((1r,4r)-4-((2-oxo-3-(pyridin-2-ylmethyl)-2,3-dihydro-1H-benzo[d]imidazol-1-yl)methyl)cyclohexyl)-2-(trifluoromethyl)benzamide]"
15,< 300 nM,"Cc1ccc(-n2c(=O)n(C[C@H]3CC[C@H](NC(=O)c4cc(Cl)cnc4C(F)(F)F)CC3)c3cccc(C)c32)cn1 [Example 302, 5-chloro-N-((1r,4r)-4-((4-methyl-3-(6-methylpyridin-3-yl)-2-oxo-2,3-dihydro-1H-benzo[d]imidazol-1-yl)methyl)cyclohexyl)-2-(trifluoromethyl)nicotinamide]"
16,< 300 nM,"O=C(N[C@H]1CC[C@H](Cn2c(=O)n(-c3cc(F)ccc3Cl)c3ncccc32)CC1)c1cc(Cl)cnc1C(F)F [Example 454, 5-chloro-N-((1r,4r)-4-((3-(2-chloro-5-fluorophenyl)-2-oxo-2,3-dihydro-1H-imidazo[4,5-b]pyridin-1-yl)methyl)cyclo-hexyl)-2-(difluoromethyl) nicotinamide]"
17,< 300 nM,"Cc1ncc(Cl)cc1C(=O)N[C@H]1CC[C@H](Cn2c(=O)n(-c3ccc(OC4CC4)nc3)c3ccccc32)CC1 [Example 113, 5-chloro-N-(4-((3-(6-cyclopropoxypyridin-3-yl)-2-oxo-2,3-dihydro-1H-benzo [d]imidazol-1-yl)methyl)cyclohexyl)-2-methylnico-tinamide]"
18,< 300 nM,"Cc1ccc(-n2c(=O)n(C[C@H]3CC[C@H](NC(=O)c4cc(Cl)cnc4C(F)F)CC3)c3nccnc32)cc1 [Example 506, 5-chloro-2-(difluoromethyl)-N-((1r,4r)-4-((2-oxo-3-(p-tolyl)-2,3-dihydro-1H-imidazo[4,5-b]pyrazin-1-yl)methyl)cyclohexyl)nicotinamide]"
19,< 300 nM,"CNC(=O)c1ccc(-n2c(=O)n(C[C@H]3CC[C@H](NC(=O)c4cc(C(F)(F)F)ccc4C)CC3)c3ccccc32)cn1 [Example 532, N-methyl-5-(3-(((1r,4r)-4-(2-methyl-5-(trifluoromethyl)benzamido)cyclohexyl)methyl)-2-oxo-2,3-dihydro-1H-benzo[d]imidazol-1-yl) picolinamide]"
20,< 300 nM,"Cc1ncc(Cl)cc1C(=O)N[C@H]1CC[C@H](Cn2c(=O)n(C3Cc4ccc(Br)cc4C3)c3ccncc32)CC1 (stereo partly drawn) [Example 211, N-((1r,4r)-4-((1-(5-bromo-2,3-dihydro-1H-inden-2-yl)-2-oxo-1H-imidazo[4,5-c]pyridin-3(2H)-yl)methyl)cyclohexyl)-5-chloro-2-methylnicotinamide]"
21,< 300 nM,"COc1ccc(Cl)c(-n2c(=O)n(C[C@H]3CC[C@H](NC(=O)c4cc(Cl)cnc4C(F)F)CC3)c3ccncc32)c1 [Example 693, 5-chloro-N-((1r,4r)-4-((3-(2-chloro-5-methoxyphenyl)-2-oxo-2,3-dihydro-1H-imidazo [4,5-c]pyridin-1-yl)methyl)cyclohexyl)-2-(difluoromethyl) nicotinamide]"
22,< 300 nM,"Cc1ncc(Cl)cc1C(=O)N[C@H]1CC[C@H](Cn2c(=O)n(-c3ccc(NC4CC4)nc3)c3ccccc32)CC1 [Example 101, 5-chloro-N-((1r,4r)-4-((3-(6-(cyclopropylamino)pyridin-3-yl)-2-oxo-2,3-dihydro-1H-benzo[d]imidazol-1-yl)methyl)cyclohexyl)-2-methylnicotinamide]"
23,< 300 nM,"Cn1cc(-c2cc(-n3c(=O)n(C[C@H]4CC[C@H](NC(=O)c5cc(Cl)cnc5C(F)F)CC4)c4ccccc43)ccn2)cn1 [Example 699, 5-chloro-2-(difluoromethyl)-N-((1r,4r)-4-((3-(2-(1-methyl-1H-pyrazol-4-yl)pyridin-4-yl)-2-oxo-2,3-dihydro-1H-benzo [d]imidazol-1-yl)methyl)cyclo-hexyl)nicotinamide]"
24,< 300 nM,"O=C(N[C@H]1CC[C@H](Cn2c(=O)n(-c3ccc(N4CCCCC4=O)nc3)c3ccccc32)CC1)c1cc(Cl)cnc1C(F)F [Example 509, 5-chloro-2-(difluoromethyl)-N-((1r,4r)-4-((2-oxo-3-(6-(2-oxopiperidin-1-yl)pyridin-3-yl)-2,3-dihydro-1H-benzo[d]imidazol-1-yl)methyl)cyclohexyl)nicotinamide]"
